Values quoted from earlier work, collected in paper PMC7064328 (Environmental Health Perspectives, 2020).

Tests used:
[1] = tested on: rats; settings: ref Conley et al. 2019, cited from earlier work
[2] = design: method as in Gannon et al. 2016; settings: rats; ref Gannon et al. 2016; cited from earlier work
[3] = tested on: CD-1 mice; settings: cited from earlier work
[4] = tested on: humans; design: method as in Johnson et al. 2014; settings: meta-analysis; ref Johnson et al. 2014; cited from earlier work
[5] = tested on: mice; design: method as in Koustas et al. 2014; settings: pregnant dams; meta-analysis; ref Koustas et al. 2014; cited from earlier work

Row | Compound | LOAEL, disrupted maternal lipids ([1]; gestational exposure) | LOAEL, disrupted maternal thyroid hormone ([1]; gestational exposure) | LOAEL, lower BWs in gestationally exposed female offspring [1] | Elimination half-life [2] | Dam plasma concentration ([3]; 5 mg/kg/d on lactation day 21, ref DuPont-18,405-1,037) | NOAEL for reproductive toxicity and maternal systemic toxicity ([3]; microscopic changes in maternal liver, ref DuPont-18,405-1,037 (Edwards 2010b)) | Shift in birth weight per 1-ng/mL increase in serum PFOA [4] | Shift in pup birth weight per 1-mg/kg BW/d increase in PFOA dose [5]
1 | N.O=C(O)C(F)(OC(F)(F)C(F)(F)C(F)(F)F)C(F)(F)F (centres unmarked) [GenX, ammonium 2,3,3,3-tetrafluoro-2-(heptafluoropropoxy)propanoate] | 125 mg/kg/day | 30 mg/kg/day | 125 mg/kg/day | ~5 h | 36.4 µg/mL | 5 mg/kg/day | – | –
2 | O=C(O)C(F)(F)C(F)(F)C(F)(F)C(F)(F)C(F)(F)C(F)(F)C(F)(F)F [PFOA, Perfluorooctanoic acid] | – | – | – | – | – | – | -18.9 g | -0.023 g
